Results on 1 compound are retold here after patent publication US11911373B2, “Attention evaluation and methods for medicating” (TECHNION RESEARCH & DEVELOPMENT FOUNDATION LIMITED, priority 2018, dated 2024).

Data set [1] relates to rat. Particulars: rat model, cited Avital et al. 2011, PLoS One 6, e22059; cited from earlier work.
For data set [2], the system named is children suffering from ADHD. Description: Auditory Sustained Attention Test (ASAT, pre-pulse inhibition) before and 1 hour after MPH. The data set is classed as in vivo, human. To be noted: re-test about 1 hour after taking MPH, versus baseline. From the text:
(§1) Test subjects were escorted by their parents, and were asked not to take the MPH treatment in the morning of the experiment, and not to drink stimulating beverages such as coffee or energy drinks. The parents signed the consent form and provided the demographic data, following which the subject commenced the 3 steps procedure: • Baseline ASAT and EDA tests: The child was asked to sit on a stable chair in front of a computer screen, connected with EDA and EMG electrodes and requested to follow the instructions before wearing the headphones: • “You will be hearing different types of tones, some will be powerful and some will be moderate. […] When the session ends, all tones will be terminated” • Children diagnosed with ADHD were asked to take the MPH treatment and come back to the test room after 50 minutes. Controls were asked to take a break and return to the test room after 50 minutes. • Post 1-hour ASAT and EDA tests were conducted as at step 1. Auditory Sustained Attention Test (ASAT) […]
(§2) The session starts with 3 minutes of acclimatization period with 57 dB background noise level that is delivered continuously throughout the session. […] Ten “No stimulus” trials were recorded in order to evaluate baseline noise levels. […] The PPI is calculated as percent of the habituated/inhibited response as follows: 100−(max response to “pre+pulse” trial/max response to “pulse alone” trial×100).

The subject of data set [3] is children suffering from ADHD. Description: Electro dermal activity (EDA), skin conductance. The data set is classed as in vivo, human. To be noted: baseline higher than controls. The source says:
Test subjects were escorted by their parents, and were asked not to take the MPH treatment in the morning of the experiment, and not to drink stimulating beverages such as coffee or energy drinks. The parents signed the consent form and provided the demographic data, following which the subject commenced the 3 steps procedure: • Baseline ASAT and EDA tests: The child was asked to sit on a stable chair in front of a computer screen, connected with EDA and EMG electrodes and requested to follow the instructions before wearing the headphones: • “You will be hearing different types of tones, some will be powerful and some will be moderate. […] When the session ends, all tones will be terminated” • Children diagnosed with ADHD were asked to take the MPH treatment and come back to the test room after 50 minutes. Controls were asked to take a break and return to the test room after 50 minutes. • Post 1-hour ASAT and EDA tests were conducted as at step 1. […]
Electrodermal activity was monitored by changes in the skin conductance. […] An isolated skin conductance coupler (Mindlife) applied a constant 0.5V (DC) potential across the electrode pair and measured the conductivity at a sample rate of 10 Hz.
Scoring of the EDA signal: During the 3 minutes acclimatization period (subjected only to a 57 dB background white noise), all electro-dermal responses were counted as non-specific EDAs. […]

Data set [4] concerns children suffering from ADHD. Description: Startle response, eye blink probability to startle stimuli. Particulars: baseline higher than controls. The data set is classed as in vivo, human.
Source text: as §1, §2

On to `COC(=O)C(c1ccccc1)C1CCCCN1` (stereo not shown) [MPH, methylphenidate], for which, in data set [1], the “long term hormonal effects” value was “long term hormonal alterations related to hyper-anxiety and aggression”. In addition, the “ASAT performance (impairment across all pre-pulse intensities) following MPH treatment” value in data set [2] is listed as “significantly recovered”. Further, the “EDAs (both specific and non-specific) following MPH treatment” value in data set [3] is reported as “do not alternate”. In addition, the “eye blink probabilities to startle stimuli following MPH treatment” value in data set [4] was “do not alternate”.
